According to paper PMC6155728, “Design, Synthesis and Evaluation of Indene Derivatives as Retinoic Acid Receptor α Agonists” (Molecules : A Journal of Synthetic Chemistry and Natural …, 2016):
Values joined by “and” are separate entries in the source; they are usually repeats but may differ in a detail not shown here. Equal entries are not always repeated. Where two headings read alike, the source gives them in different places.

Assays:
HL60 cells [1] = assay: Inhibition of cell proliferation assay (SRB), HL60; type: cell-based; conditions: Homo sapiens, read-out: IC50 cell proliferation HL60
Description: (§1) Human promyelocytic leukemia cell lines HL60 and NB4 were employed to determine the effects of the derivatives on cell proliferation. […] Alkoxy-substitution at the 2-position (i.e., compounds 36f, 36g) harmed the cell proliferation inhibitory activity of the compounds in both cell lines while the isopropyl group at the same position (compound 36h) is favourable. The extension of the π system by an alkenyl bond or a ketone group, as in 36j–l, didn’t affect the compounds’ inhibitory activity in HL60 cells but nulified their activity in NB4 cells. The indene ring tolerates the dual-introduction of a small alkoxyl and an alkyl group at 1- and 2-position, respectively, to retain the antiproliferative activity in HL60 cells.
(§2) Cells were seeded in 96-well plates (Corning Inc.) with a density of 2500 cells (NB4 or HL60) per well for overnight. Then, cells were exposed to each of the test compounds 36a–36p in gradient concentration of 10^−9, 10^−8, 10^−7, 10^−6, 10^−5 mol/L. Control cultures were treated with the same volume of DMSO. After 72 hours of incubation, the cell density in each well were fixed by trichloroacetic acid and then measured using the SRB (sulforhodamine B) method. After rinsing, the SRB was solubilized in TrisHCl, and the optical density of each culture was determined with a Bio-Tek Elx 800 absorbance microplate reader (BioTek, Shoreline, WA, USA). The OD of the treated cultures was divided by that of the control cultures treated with solvent alone.

NB4 cells [2] = assay: Inhibition of cell proliferation assay (SRB), NB4; type: cell-based, human; conditions: read-out: IC50 cell proliferation NB4
Description: as §1, §2

HL60 cells [3] = assay: Cell differentiation assay (CD11b, FACS), HL60; type: cell-based, human
Description: (§3) The effects of 36a–g on the differentiation of HL60 and NB4 cells were then assessed.
(§4) Cells (1 × 10^6/mL) were treated with compounds at different concentrations based on IC50 in Table 2 […]. After the treatment, cells were washed twice with PBS and then fixed with 75% alcohol overnight at −20 °C. The fixed cells were washed with PBS and blocked with 95 μL 3% BSA in PBS for 45 min at room temperature. The cells were incubated with 5 μL CD11b-PE at 4 °C for 45 min with protection from light. The antigens were then determined by a FACSCalibur flow cytometer (BD Biosciences Pharmingen, San Diego, CA, USA). The percentages of positive cells were quantitated using CellQuest Pro software. Cells stained with mouse IgG-PE served as negative controls. Both CD11b-PE and mouse IgG-PE antibodies were purchased from BD Biosciences. At least 10,000 cells were analyzed for each data point.

NB4 cells [4] = assay: Cell differentiation assay (CD11b, FACS), NB4; type: cell-based, human
Description: as §3, §4

RARα (RAR alpha LBD-GST) = biological target: T1, RARα (RAR alpha LBD-GST) (Homo sapiens, UniProt P10276); assay: Receptor binding assay (LanthaScreen TR-FRET RAR alpha Coactivator Assay); conditions: 1 h incubation, AM80 positive control, read-out: RARα binding affinity EC50
T1 construct: A mixture of 5 nM RAR alpha LBD-GST, 5 nM TbAnti-GST antibody, 50 nM Fluorescein-D22 was added to the wells; purchased Invitrogen
T1 sequence (P10276 183-417 limits assumed): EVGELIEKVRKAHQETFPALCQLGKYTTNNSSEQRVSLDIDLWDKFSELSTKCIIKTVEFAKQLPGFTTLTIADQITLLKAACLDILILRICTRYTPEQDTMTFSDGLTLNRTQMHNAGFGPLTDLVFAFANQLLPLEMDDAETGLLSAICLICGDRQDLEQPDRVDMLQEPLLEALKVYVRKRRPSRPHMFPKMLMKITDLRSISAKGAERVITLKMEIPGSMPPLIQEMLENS
Description: The obtained target compounds were tested for their binding affinities to RARα using a time resolved fluorescence resonance energy transfer (TR-FRET) assay with AM80 as the positive control.
All synthesized compounds were tested for their binding affinity by using time resolved fluorescence resonance energy transfer (TR-FRET) assay, which used a LanthaScreen® TR-FRET RAR alpha Coactivator Assay Kit (Invitrogen, Carlsbad, CA, USA). Briefly, all experiments were performed in black 384-well low-volume plates (Corning Inc., Corning, NY, USA) in dark at room temperature. The final assay volume was 20 μL. All dilutions were made in assay buffer (TR-FRET Coregulator Buffer D). The final DMSO concentration was 1%. A mixture of 5 nM RAR alpha LBD-GST, 5 nM TbAnti-GST antibody, 50 nM Fluorescein-D22 was added to the wells. The only variable is the agonist concentration (6.1 × 10^−11~1.0 × 10^−6 M final concentrations of each retinoid). […] Data were analyzed by using GraphPad Prism software (GraphPad Software, Inc., La Jolla, CA, USA) and FRET signal was determined for all treatments by dividing 520 nm/495 nm signals. Graphs plotted as fold change of FRET signal for compounds treatment over DMSO only treatment.

[5] = HL-60, HL60 cells, 72 hours, SRB
[6] = Homo sapiens, NB-4, 72 h, NB4 cells, 72 hours, SRB

Compound | IC50 (HL60 cells [1]; [5]) [nM] | melting point [°C] | EC50 (RARα (RAR alpha LBD-GST)) [nM] | IC50 (HL60 cells [1]; HL-60, 72 h) [nM] | IC50 (NB4 cells [2]; Homo sapiens, NB-4, 72 h) [nM] | CD11b (%) HL60 (HL60 cells [3]; 10 μM) | CD11b (%) NB4 (NB4 cells [4]; 10 μM) | IC50 (NB4 cells [2]; [6]) [nM] | CD11b (%) HL60 (HL60 cells [3]; 50 μM) | CD11b (%) NB4 (NB4 cells [4]; 5 μM) | IC50 (NB4 cells [2]; NB4 cells, 72 hours, SRB) [nM] | CD11b (%) NB4 (NB4 cells [4]; 20 μM)
CC1(C)CCC(C)(C)c2cc(NC(=O)c3ccc(C(=O)O)cc3)ccc21 [AM80, reference compound] | – | – | – | 170 | 13300 | 4.59 (10 μM) % | 94.93 (10 μM) % | – | – | – | – | –
O=C(O)c1ccc(C(=O)Nc2ccc3c(c2)CCC3)cc1 [Compound 36a, 4-((2,3-Dihydro-1H-inden-5-yl)carbamoyl)benzoic acid] | > 50000 | > 250 | 12.1 | – | – | – | – | 6970 | 1.13 (50 μM) % | 0.97 (5 μM) % | – | –
CCOC1CCc2ccc(NC(=O)c3ccc(C(=O)O)cc3)cc21 (stereo not drawn) [Compound 36c] | – | > 250 | – | – | – | – | – | – | – | – | – | –
CC(C)OC1CCc2ccc(NC(=O)c3ccc(C(=O)O)cc3)cc21 (stereo not drawn) [Compound 36d, 4-((3-Isopropoxy-2,3-dihydro-1H-inden-5-yl)carbamoyl)benzoic acid] | > 50000 | > 250 | 24.2 | – | – | – | – | 1860 to 4090 | 3.77 (50 μM) % | 68.88% and 68.88 (5 μM) % | 1860 | –
CCCCOC1CCc2ccc(NC(=O)c3ccc(C(=O)O)cc3)cc21 (stereo not drawn) [Compound 36e, 4-((3-Butoxy-2,3-dihydro-1H-inden-5-yl)carbamoyl)benzoic acid] | > 50000 | > 250 | 14.9 | – | – | – | – | – | 2.87 (50 μM) % | 15.42 (5 μM) % | – | –
COC1Cc2ccc(NC(=O)c3ccc(C(=O)O)cc3)cc2C1 (stereo not drawn) [Compound 36f, 4-((2-Methoxy-2,3-dihydro-1H-inden-5-yl)carbamoyl)benzoic acid] | > 50000 | > 250 | > 1000 | – | – | – | – | > 50000 | – | – | – | –
CCOC1Cc2ccc(NC(=O)c3ccc(C(=O)O)cc3)cc2C1 (stereo not drawn) [Compound 36g, 4-((2-Ethoxy-2,3-dihydro-1H-inden-5-yl)carbamoyl)benzoic acid] | > 50000 | > 250 | > 1000 | – | – | – | – | 22000 | 5.82 (50 μM) % | – | – | 0.49 (20 μM) %
CC1=Cc2cc(NC(=O)c3ccc(C(=O)O)cc3)ccc2C1 [Compound 36i, 4-((2-Methyl-1H-inden-5-yl)carbamoyl)benzoic acid] | > 50000 | > 250 | 14.1 | – | – | – | – | > 50000 | – | – | – | –

The remaining compounds from weak to strong by IC50 (HL60 cells [1]; [5]), led by results:

IC50 (HL60 cells [1]; [5]) [nM] | melting point [°C] | EC50 (RARα (RAR alpha LBD-GST)) [nM] | Compound | IC50 (HL60 cells [1]; HL-60, 72 h) [nM] | IC50 (NB4 cells [2]; Homo sapiens, NB-4, 72 h) [nM] | CD11b (%) HL60 (HL60 cells [3]; 10 μM) | CD11b (%) NB4 (NB4 cells [4]; 10 μM) | IC50 (NB4 cells [2]; [6]) [nM] | CD11b (%) HL60 (HL60 cells [3]; 50 μM) | CD11b (%) NB4 (NB4 cells [4]; 5 μM) | IC50 (NB4 cells [2]; NB4 cells, 72 hours, SRB) [nM] | CD11b (%) NB4 (NB4 cells [4]; 20 μM)
2660 | > 250 | – | CC1Cc2ccc(NC(=O)c3ccc(C(=O)O)cc3)cc2C1=O (stereo not drawn) [Compound 36k, 4-((2-Methyl-3-oxo-2,3-dihydro-1H-inden-5-yl)carbamoyl)benzoic acid] | – | – | – | – | > 50000 | – | – | – | –
2370 | > 250 | 3.53 | CC(C)C1=Cc2cc(NC(=O)c3ccc(C(=O)O)cc3)ccc2C1 [Compound 36j, 4-((2-Isopropyl-1H-inden-5-yl)carbamoyl)benzoic acid] | – | – | – | – | > 50000 | – | – | – | –
2350 | > 250 | 3.93 | COC1c2cc(NC(=O)c3ccc(C(=O)O)cc3)ccc2CC1C(C)C (stereo not drawn) [Compound 36o, 4-((2-Isopropyl-3-methoxy-2,3-dihydro-1H-inden-5-yl)carbamoyl)benzoic acid] | – | – | – | – | > 50000 | – | – | – | –
2110 | > 250 | 4.68 | CC(C)C1Cc2ccc(NC(=O)c3ccc(C(=O)O)cc3)cc2C1=O (stereo not drawn) [Compound 36l, 4-((2-Isopropyl-3-oxo-2,3-dihydro-1H-inden-5-yl)carbamoyl)benzoic acid] | – | – | – | – | 36900 | – | – | – | –
1130 | > 250 | 9.03 | CCOC1c2cc(NC(=O)c3ccc(C(=O)O)cc3)ccc2CC1C(C)C (stereo not drawn) [Compound 36p, 4-((3-Ethoxy-2-isopropyl-2,3-dihydro-1H-inden-5-yl)carbamoyl)benzoic acid] | – | – | – | – | 7560 | – | – | – | –
910 | > 250 | 43 | CC(C)C1Cc2ccc(NC(=O)c3ccc(C(=O)O)cc3)cc2C1 (stereo not drawn) [Compound 36h, 4-((2-Isopropyl-2,3-dihydro-1H-inden-5-yl)carbamoyl)benzoic acid] | – | – | – | – | 2610 | – | – | – | –
800 | > 250 | 146 | CCOC1c2cc(NC(=O)c3ccc(C(=O)O)cc3)ccc2CC1C (stereo not drawn) [Compound 36n, 4-((3-Ethoxy-2-methyl-2,3-dihydro-1H-inden-5-yl)carbamoyl)benzoic acid] | – | – | – | – | 8510 | – | – | – | –
430 | > 250 | 292 | COC1c2cc(NC(=O)c3ccc(C(=O)O)cc3)ccc2CC1C (stereo not drawn) [Compound 36m, 4-((3-Methoxy-2-methyl-2,3-dihydro-1H-inden-5-yl)carbamoyl)benzoic acid] | – | – | – | – | > 50000 | – | – | – | –
130 | > 250 | 130 | COC1CCc2ccc(NC(=O)c3ccc(C(=O)O)cc3)cc21 (stereo not drawn) [Compound 36b, 4-((3-Methoxy-2,3-dihydro-1H-inden-5-yl)carbamoyl)benzoic acid] | – | – | – | – | 35400 | – | – | – | –
